Data taken from ChEMBL document CHEMBL1201862, “PubChem BioAssay data set” (2004).
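How tested: cells in 96-well plates exposed to compound for 48 hours at five concentrations. At the GI50, growth is halved.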 The source made the active and inactive calls. No stated cut-off is given here; in the data, active = GI50 up to about 1.1 µM and inactive = higher.

Assays:
Assay in all cases: NCI tumour cell line growth inhibition, 48 h
EKVX = test system: EKVX
ACHN = test system: ACHN
DMS-114 = test system: DMS-114
DLD-1 = test system: DLD-1
M19-MEL = test system: M19-MEL
SNB-75 = test system: SNB-75
HOP-92 = test system: HOP-92
SR = test system: SR
U-251 = test system: U-251
SF-539 = test system: SF-539
NCI-H460 = test system: NCI-H460
LOX IMVI = test system: LOX IMVI
SW-620 = test system: SW-620
NCI-H522 = test system: NCI-H522
KM-20L2 = test system: KM-20L2
SK-MEL-28 = test system: SK-MEL-28
DMS-273 = test system: DMS-273
OVCAR-3 = test system: OVCAR-3
HOP-62 = test system: HOP-62
HL-60 = test system: HL-60
SK-OV-3 = test system: SK-OV-3
HOP-18 = test system: HOP-18
A549 = test system: A549
MOLT-4 = test system: MOLT-4
COLO 205 = test system: COLO 205
RPMI-8226 = test system: RPMI-8226
XF498 = test system: XF498
NCI-H23 = test system: NCI-H23
K562 = test system: K562
SNB-19 = test system: SNB-19
NCI-H226 = test system: NCI-H226
RXF 631 = test system: RXF 631
A498 = test system: A498
786-0 = test system: 786-0
HCC 2998 = test system: HCC 2998
OVCAR-4 = test system: OVCAR-4
TK-10 = test system: TK-10
HT-29 = test system: HT-29
IGROV-1 = test system: IGROV-1
CAKI-1 = test system: CAKI-1
CCRF-CEM = test system: CCRF-CEM
KM12 = test system: KM12
UACC-62 = test system: UACC-62
OVCAR-8 = test system: OVCAR-8
HCT-116 = test system: HCT-116
LXFL 529 = test system: LXFL 529
SN12C = test system: SN12C
Malme-3M = test system: Malme-3M
OVCAR-5 = test system: OVCAR-5
SF-268 = test system: SF-268
SF-295 = test system: SF-295
M14 = test system: M14
SNB-78 = test system: SNB-78
UACC-257 = test system: UACC-257
HCT-15 = test system: HCT-15
UO-31 = test system: UO-31
RXF 393 = test system: RXF 393

Measured: GI50

CC1CCCc2c(CC3CC(=O)NC(=O)C3)n[nH]c21 (configuration not stated)
> 100 µM: HCT-15
inactive: EKVX > 100 µM | ACHN > 100 µM | DMS-114 > 100 µM | DLD-1 > 100 µM | M19-MEL > 100 µM | SNB-75 > 100 µM | HOP-92 > 100 µM | SR > 100 µM | U-251 > 100 µM | SF-539 > 100 µM | NCI-H460 > 100 µM | LOX IMVI > 100 µM | SW-620 > 100 µM | NCI-H522 > 100 µM | KM-20L2 > 100 µM | SK-MEL-28 > 100 µM | DMS-273 > 100 µM | OVCAR-3 > 100 µM | HOP-62 > 100 µM | HL-60 > 100 µM | SK-OV-3 > 100 µM | HOP-18 > 100 µM | A549 > 100 µM | MOLT-4 > 100 µM | COLO 205 > 100 µM | RPMI-8226 > 100 µM | XF498 > 100 µM | NCI-H23 > 100 µM | K562 > 100 µM | SNB-19 > 100 µM | NCI-H226 > 100 µM | RXF 631 > 100 µM | A498 > 100 µM | 786-0 > 100 µM | HCC 2998 > 100 µM | OVCAR-4 > 100 µM | TK-10 > 100 µM | HT-29 > 100 µM | IGROV-1 > 100 µM | CAKI-1 > 100 µM | CCRF-CEM > 100 µM | KM12 > 100 µM | UACC-62 > 100 µM | OVCAR-8 > 100 µM | HCT-116 > 100 µM | LXFL 529 > 100 µM | SN12C > 100 µM | Malme-3M > 100 µM | OVCAR-5 > 100 µM | SF-268 > 100 µM | SF-295 > 100 µM | M14 > 100 µM | SNB-78 > 100 µM | UACC-257 > 100 µM | UO-31 > 100 µM | RXF 393 > 100 µM
